Assays:
Influenza A virus = test: Antiviral activity against Influenza A virus (A/Puerto Rico/8/1934(H1N1)) infected in MDCK cells assessed as decrease in virus titer after 48 hrs by MTT assay; assay type: functional, organism-based
[1] = Selectivity index, ratio of CTD50 for MDCK cells to EC50 for Influenza A virus (A/Puerto Rico/8/1934(H1N1)); assay type: toxicity, cell-based; conditions: dog
[2] = Cytotoxicity against African green monkey Vero cells assessed as cell viability after 72 hrs by MTT assay; assay type: cell-based; conditions: chlorocebus sabaeus, read-out: CTD50
Coxsackievirus B4 = test: Antiviral activity against Human coxsackievirus B4 Powers infected in African green monkey Vero cells assessed as decrease in virus titer after 72 hrs by MTT assay; assay type: functional, organism-based; conditions: Enterovirus B
[3] = Selectivity index, ratio of CTD50 for African green monkey Vero cells to EC50 for Human coxsackievirus B4 Powers; assay type: toxicity, cell-based
M14 = test: Cytotoxicity against human M14 cells assessed as growth at 10^-5 M relative to control
A549 = test: Cytotoxicity against human A549 cells assessed as growth at 10^-5 M relative to control
KM12 = test: Cytotoxicity against human KM12 cells assessed as growth at 10^-5 M relative to control
ACHN = test: Cytotoxicity against human ACHN cells assessed as growth at 10^-5 M relative to control
UO-31 = test: Cytotoxicity against human UO31 cells assessed as growth at 10^-5 M relative to control
MCF7 = test: Cytotoxicity against human MCF7 cells assessed as growth at 10^-5 M relative to control
T47D = test: Cytotoxicity against human T47D cells assessed as growth at 10^-5 M relative to control
MOLT-4 = test: Cytotoxicity against human MOLT4 cells assessed as growth at 10^-5 M relative to control
HOP-62 = test: Cytotoxicity against human HOP62 cells assessed as growth at 10^-5 M relative to control
SF-268 = test: Cytotoxicity against human SF268 cells assessed as growth at 10^-5 M relative to control
SF-539 = test: Cytotoxicity against human SF539 cells assessed as growth at 10^-5 M relative to control
SNB-19 = test: Cytotoxicity against human SNB19 cells assessed as growth at 10^-5 M relative to control
SNB-75 = test: Cytotoxicity against human SNB75 cells assessed as growth at 10^-5 M relative to control
SK-OV-3 = test: Cytotoxicity against human SKOV3 cells assessed as growth at 10^-5 M relative to control
786-0 = test: Cytotoxicity against human 786-0 cells assessed as growth at 10^-5 M relative to control
SN12C = test: Cytotoxicity against human SN12C cells assessed as growth at 10^-5 M relative to control
DU-145 = test: Cytotoxicity against human DU145 cells assessed as growth at 10^-5 M relative to control
BT-549 = test: Cytotoxicity against human BT549 cells assessed as growth at 10^-5 M relative to control
HCT-116 = test: Cytotoxicity against human HCT116 cells assessed as growth at 10^-5 M relative to control
IGROV-1 = test: Cytotoxicity against human IGROV1 cells assessed as growth at 10^-5 M relative to control
OVCAR-3 = test: Cytotoxicity against human OVCAR3 cells assessed as growth at 10^-5 M relative to control
OVCAR-4 = test: Cytotoxicity against human OVCAR4 cells assessed as growth at 10^-5 M relative to control
OVCAR-8 = test: Cytotoxicity against human OVCAR8 cells assessed as growth at 10^-5 M relative to control
RXF 393 = test: Cytotoxicity against human RXF393 cells assessed as growth at 10^-5 M relative to control
NCI-H23 = test: Cytotoxicity against human NCI-H23 cells assessed as growth at 10^-5 M relative to control
COLO 205 = test: Cytotoxicity against human COLO205 cells assessed as growth at 10^-5 M relative to control
HCC 2998 = test: Cytotoxicity against human HCC2998 cells assessed as growth at 10^-5 M relative to control
UACC-257 = test: Cytotoxicity against human UACC257 cells assessed as growth at 10^-5 M relative to control
CCRF-CEM = test: Cytotoxicity against human CCRF-CEM cells assessed as growth at 10^-5 M relative to control
RPMI-8226 = test: Cytotoxicity against human RPMI8226 cells assessed as growth at 10^-5 M relative to control
NCI-H460 = test: Cytotoxicity against human NCI-H460 cells assessed as growth at 10^-5 M relative to control
Malme-3M = test: Cytotoxicity against human MALME-3M cells assessed as growth at 10^-5 M relative to control
SK-MEL-2 = test: Cytotoxicity against human SK-MEL-2 cells assessed as growth at 10^-5 M relative to control
SK-MEL-28 = test: Cytotoxicity against human SK-MEL-28 cells assessed as growth at 10^-5 M relative to control
MDA-MB-435 = test: Cytotoxicity against human MDA-MB-435 cells assessed as growth at 10^-5 M relative to control

Compound | EC50 (Influenza A virus) [µM] | selectivity ratio [1] | CC50 at 72 h [2] [µM] | EC50 (Coxsackievirus B4) [µM] | selectivity ratio [3] | growth, % of control at 10 µM (M14) [%] | growth, % of control at 10 µM (A549) [%] | growth, % of control at 10 µM (KM12) [%] | growth, % of control at 10 µM (ACHN) [%] | growth, % of control at 10 µM (UO-31) [%] | growth, % of control at 10 µM (MCF7) [%] | growth, % of control at 10 µM (T47D) [%] | growth, % of control at 10 µM (MOLT-4) [%] | growth, % of control at 10 µM (HOP-62) [%] | growth, % of control at 10 µM (SF-268) [%] | growth, % of control at 10 µM (SF-539) [%] | growth, % of control at 10 µM (SNB-19) [%] | growth, % of control at 10 µM (SNB-75) [%] | growth, % of control at 10 µM (SK-OV-3) [%] | growth, % of control at 10 µM (786-0) [%] | further results
COc1ccc(CCNc2ncnc3c2ncn3[C@H]2C[C@H]3[C@H](CO)[C@@H]2C[C@@H]3Cl)cc1 | 16 | 22 | 14 | > 9 | 1 | 98.3 | 83.3 | 97 | 97.7 | 81 | 94.1 | 66.1 | 103 | 107 | 97.7 | 95.1 | 107 | 92.8 | 106 | 101 | growth, % of control at 10 µM (SN12C): 102%; growth, % of control at 10 µM (DU-145): 105%; growth, % of control at 10 µM (BT-549): 86.8%; growth, % of control at 10 µM (HCT-116): 100%; growth, % of control at 10 µM (IGROV-1): 98.7%; growth, % of control at 10 µM (OVCAR-3): 111%; growth, % of control at 10 µM (OVCAR-4): 94.3%; growth, % of control at 10 µM (OVCAR-8): 101%; growth, % of control at 10 µM (RXF 393): 104%; growth, % of control at 10 µM (NCI-H23): 102%; growth, % of control at 10 µM (COLO 205): 113%; growth, % of control at 10 µM (HCC 2998): 97.2%; growth, % of control at 10 µM (UACC-257): 99.4%; growth, % of control at 10 µM (CCRF-CEM): 108%; growth, % of control at 10 µM (RPMI-8226): 82.5%; growth, % of control at 10 µM (NCI-H460): 106%; growth, % of control at 10 µM (Malme-3M): 98.2%; growth, % of control at 10 µM (SK-MEL-2): 101%; growth, % of control at 10 µM (SK-MEL-28): 104%; growth, % of control at 10 µM (MDA-MB-435): 114%
OC[C@H]1[C@@H]2C[C@H](n3cnc4c(NCCc5ccccc5)ncnc43)[C@H]1C[C@@H]2Cl | 15 | 10 | 14 | 4 | 3 | 101 | 92.6 | 102 | 97.8 | 73.8 | 89.9 | 86.8 | 83.3 | 94.2 | 101 | 98.2 | 107 | 106 | 103 | 97 | growth, % of control at 10 µM (SN12C): 99.9%; growth, % of control at 10 µM (DU-145): 98%; growth, % of control at 10 µM (BT-549): 96.1%; growth, % of control at 10 µM (HCT-116): 101%; growth, % of control at 10 µM (IGROV-1): 105%; growth, % of control at 10 µM (OVCAR-3): 110%; growth, % of control at 10 µM (OVCAR-4): 93.6%; growth, % of control at 10 µM (OVCAR-8): 95.7%; growth, % of control at 10 µM (RXF 393): 87%; growth, % of control at 10 µM (NCI-H23): 93.2%; growth, % of control at 10 µM (COLO 205): 99.3%; growth, % of control at 10 µM (HCC 2998): 89.8%; growth, % of control at 10 µM (UACC-257): 103%; growth, % of control at 10 µM (CCRF-CEM): 87.6%; growth, % of control at 10 µM (RPMI-8226): 87.9%; growth, % of control at 10 µM (NCI-H460): 108%; growth, % of control at 10 µM (Malme-3M): 102%; growth, % of control at 10 µM (SK-MEL-2): 97.2%; growth, % of control at 10 µM (SK-MEL-28): 107%; growth, % of control at 10 µM (MDA-MB-435): 99.7%
CCOc1ncnc2c1ncn2[C@H]1C[C@H]2[C@H](CO)[C@@H]1C[C@@H]2Cl | 225 | > 5 | 208 | > 102 | 2 | 111 | 99 | 101 | 99 | 88.1 | 95.2 | 103 | 111 | 106 | 98 | 102 | 115 | 83.1 | 128 | 108 | growth, % of control at 10 µM (SN12C): 108%; growth, % of control at 10 µM (DU-145): 105%; growth, % of control at 10 µM (BT-549): 106%; growth, % of control at 10 µM (HCT-116): 105%; growth, % of control at 10 µM (IGROV-1): 95.4%; growth, % of control at 10 µM (OVCAR-3): 111%; growth, % of control at 10 µM (OVCAR-4): 108%; growth, % of control at 10 µM (OVCAR-8): 106%; growth, % of control at 10 µM (RXF 393): 106%; growth, % of control at 10 µM (NCI-H23): 87.9%; growth, % of control at 10 µM (COLO 205): 119%; growth, % of control at 10 µM (HCC 2998): 98.9%; growth, % of control at 10 µM (UACC-257): 106%; growth, % of control at 10 µM (CCRF-CEM): 129%; growth, % of control at 10 µM (RPMI-8226): 121%; growth, % of control at 10 µM (NCI-H460): 108%; growth, % of control at 10 µM (Malme-3M): 96%; growth, % of control at 10 µM (SK-MEL-2): 108%; growth, % of control at 10 µM (SK-MEL-28): 100%; growth, % of control at 10 µM (MDA-MB-435): 106%
